From patent US11613515B2, “Neuro-attenuating ketamine and norketamine compounds, derivatives thereof, and methods” (Amorsa Therapeutics, Inc., priority 2014, dated 2023)
Counter-ions that a name gives are not always drawn.

Tests used:
NMDA receptor = experiment: Patch clamp electrophysiological functional response, NMDA receptor inhibition; format: cell-based; conditions: cultural hippocampal rat neurons
[1] = fraction of ketamine activity; cited from earlier work
[2] = Metabolic stability in rat liver microsomes; conditions: NADPH regenerating system, 0 to 60 min
[3] = Pharmacokinetics of deuterated norketamines in rats (tail vein injection); conditions: 0.8 mg/kg, injection into the tail vein
Method: Pharmacokinetics of the deuterated norketamines is studied in rats. […] The terminal half-lives are calculated by fitting the data points using a WinNonLin software package.

[4] = estimated, background; cited from earlier work
[5] = cited from earlier work

Q: Which IC50 (NMDA receptor) does the source give for `NC1(c2ccccc2Cl)CCCCC1=O` (racemic) [norketamine, (R,S)-2-(2-chlorophenyl)-2-(amino) cyclohexanone] here?
A: The IC50 was 14.7 µM.

Q: What about the “activity as compared with ketamine” value [1] of the same compound?
A: The value was “roughly one third”.

Q: With `[2H]C1([2H])CCCC(N)(c2ccccc2Cl)C1=O` (centres unmarked) [compound 11] as the compound, how does the IC50 (NMDA receptor) read?
A: Its IC50 is 25.9 µM.

Q: And the “increase in half-life compared to non-deuterated norketamine” value [2]?
A: Its value is “about 80%”.

Q: And the “increase of terminal half-life vs norketamine” value [3]?
A: The value was roughly 40%.

Q: For `CNC1(c2ccccc2Cl)CCCCC1=O` (racemic) [ketamine, (R,S)-2-(2-chlorophenyl)-2-(methylamino) cyclohexanone], which IC50 (NMDA receptor) is on record?
A: Its IC50 is 2.2 µM.

Q: And the elimination half-life [4]?
A: The elimination half-life was 2 to 3 h.

Q: Which solubility in water [5] does the source give for `CNC1(c2ccccc2Cl)CCCCC1=O` (centres unmarked) [ketamine hydrochloride] here?
A: The solubility in water was “about 200 mg/ml”.
